Consider twelve molecules from PubChem BioAssay (NCI).

What all share (assay): NCI anticancer screen, dose series, 48 h
In assay [1] the test system is COLO 205 colon.
The test system of assay [2] is CAKI-1 renal.
In assay [3] the test system is EKVX NSCLC.
In assay [4] the test system is SW-620 colon.
Assay [5] has as its system MCF7 breast.
Assay [6] concerns MDA-MB-435.
Assay [7] has as its system A498 renal.
Assay [8] relates to IGROV1 ovarian.
Assay [9] relates to NCI-H226 lung.
Assay [10] relates to PC-3 prostate.

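Grown in 96-well plates, cells were treated for 48 hours with each compound at five concentrations. Insufficient inhibition: endpoint recorded as highest concentration tested. The concentration for 50% growth inhibition is given as GI50. TGI: total growth inhibition.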

`COc1cc(C2=N/C(=C/c3cccs3)C(=O)O2)cc(OC)c1OC`: the TGI in assay [1], in [2], in [3], in assay [4], in assay [5] and in assay [6] was above 100 µM throughout. Moreover, the TGI in [7], in assay [8], in assay [9] and in [10] was above 100 µM each time.

Take `O=C(N/N=C/c1ccc(O)cc1O)c1cccc(Nc2ccnc(C(F)(F)F)c2)c1`: the GI50 in [1] is 554 nM; in [2] it was 1990 nM; in assay [3], 1.32 µM; in assay [4], 4070 nM; in assay [5] it was 2200 nM; in assay [6] it was 0.861 µM. Besides, the GI50 in assay [7] was 12800 nM; in assay [8], 1280 nM; in assay [9], 1210 nM; in assay [10], 3.01 µM. For the same molecule, the TGI in assay [1] worked out at 15 µM; in assay [2], 22.5 µM; in assay [3] it was 37.3 µM; in assay [4], 21.4 µM; in [5] it was 15.5 µM; in assay [6], 20.8 µM. In addition, the TGI was above 51 µM in [7], 27.7 µM in assay [8], 9.44 µM in assay [9] and 34.2 µM in [10].

As to `[N-]=[N+]=NCCCn1c2c(c3ccc([N+](=O)[O-])cc3c1=O)C(=O)c1cc(F)ccc1-2`, the GI50 in assay [1] was 9260 nM; in assay [2], 288 nM; in [3], 61.2 µM; in [4], 1760 nM; in [5], 311 nM; in assay [6] it was 4.15 µM. Further, the GI50 was 11800 nM in [7], 2300 nM in assay [8], 2260 nM in assay [9] and 1.25 µM in [10]. Moreover, the TGI in assay [1] is above 100 µM; in assay [2] it was 4.68 µM; in assay [3], above 100 µM; in [4] it was above 100 µM; in assay [5], above 55.1 µM; in assay [6], above 86.4 µM. Moreover, the TGI in assay [7] was 72.2 µM; in assay [8], above 30.2 µM; in [9], above 46.8 µM; in [10], 43.2 µM.

As to `Fc1cccc(-n2ccc(-c3ccccc3)nc2=S)c1`, the TGI is 3.82 µM in assay [1]; 14.3 µM in assay [2]; 33.4 µM in [3]; above 100 µM in assay [4]; 41.2 µM in assay [5]; above 100 µM in assay [6]. Besides, the TGI in assay [7] was 33.3 µM; in [8], above 62.2 µM; in assay [9] it was 36.5 µM; in assay [10], 39.4 µM. Moreover, the GI50 in assay [2] was 4110 nM; in assay [3], 17.7 µM; in assay [4], above 100000 nM; in assay [5] it was 18500 nM; in assay [6], 99.7 µM; in [7], 17200 nM. The GI50 was 25500 nM in assay [8], 18100 nM in assay [9] and 17.5 µM in assay [10].

For the molecule `CC(=O)O[C@H](C[C@H](C(C)C)N(C)C(=O)[C@@H](NC(=O)[C@H]1CCCN1C)C(C)C)c1nc(C(=O)N[C@@H](Cc2ccccc2)C[C@H](C)C(=O)O)c(C)s1`, the GI50 is 1.97 nM in assay [1]; 0.0044 µM in [3]; below 1.67 nM in assay [4]; below 1.67 nM in assay [5]; below 0.00167 µM in assay [6]; below 1.67 nM in [7]. Besides, the GI50 in assay [8] was 2.41 nM; in [10], below 0.00167 µM. For the same molecule, the TGI in assay [1] is 0.0255 µM; in assay [3], above 16.7 µM; in [4], above 16.7 µM; in assay [5], above 16.7 µM; in [6] it was below 0.00167 µM; in [7], 0.00956 µM. The TGI in assay [8] and in assay [10] was above 16.7 µM each time.

Regarding `OCCNc1nc(Nc2ccc(Cl)c(Cl)c2)nc2ccccc12`, the GI50 is 1600 nM in assay [1]; 4660 nM in assay [2]; 4020 nM in assay [4]; 1960 nM in [5]; 7.1 µM in assay [6]; 1500 nM in [7]. Moreover, the figures for the GI50 in assay [8], in [9] and in assay [10] were 5140 nM, 12900 nM and 4.47 µM, respectively. The TGI in assay [1] came to 3.07 µM; in assay [2], 18.2 µM; in assay [4], 16.2 µM; in assay [5] it was 14.6 µM; in assay [6], 20.2 µM; in [7] it was 13.9 µM. For the same molecule, the results for the TGI in assay [8], in assay [9] and in assay [10] were 20 µM, 34.2 µM and 16.6 µM, respectively.

In the case of `CC1(C)NCCC[C@]2(C)[C@H]3CC[C@@H]4[C@H]5[C@H](C(=O)/C=C/c6ccccn6)CC[C@]5(CO)CC[C@@]4(C)[C@]3(C)CC[C@@H]12`, the GI50 in [1] is 2070 nM; in assay [2], 2140 nM; in assay [3], 5.51 µM; in assay [4], 1820 nM; in assay [5] it was 1850 nM; in assay [6], 2.11 µM. The values for the GI50 in [7], in assay [9] and in [10] were 8700 nM, 4240 nM and 2.55 µM, respectively. Besides, the TGI in assay [1] was determined as 4.28 µM; in assay [2] it was 6.85 µM; in [3], 23.4 µM; in [4], 3.49 µM; in [5] it was 5.8 µM; in assay [6], 4.9 µM. The TGI in assay [7] worked out at 23.5 µM; in assay [9], 20.7 µM; in assay [10], 11.8 µM.

Regarding `O=C1C=CC(=O)N1c1cccc(N2C(=O)C=CC2=O)c1`, the GI50 is 1390 nM in assay [1]; 19.1 µM in [3]; 1990 nM in assay [4]; 2520 nM in [5]; 3.85 µM in [6]; 16200 nM in assay [7]. The values for the GI50 in [8], in assay [9] and in assay [10] were 2380 nM, 2910 nM and 13.4 µM, respectively. Also, the TGI in [1] turned out to be 2.88 µM; in assay [3] it was 83.1 µM; in assay [4], 3.87 µM; in assay [5] it was 5.52 µM; in [6], 16.2 µM; in [7], 31.1 µM. Besides, the values for the TGI in [8], in assay [9] and in assay [10] were 5.52 µM, 7.63 µM and 31.6 µM, respectively.

Turning to `CCn1c(-c2nonc2N)nc2c(C#CC(C)(C)O)ncc(OC[C@H]3CCCNC3)c21`, the GI50 in assay [1] was 9750 nM; in assay [2], 32700 nM; in assay [4] it was 11100 nM; in [5], 1050 nM; in assay [6], 13.7 µM; in assay [7], 46.9 nM. Also, the GI50 was 87.6 nM in assay [8], 21100 nM in assay [9] and 10.4 µM in [10]. Also, the TGI in [1] was 26.3 µM; in [2], above 100 µM; in [4], above 100 µM; in assay [5], 22.9 µM; in [6], 30.3 µM; in assay [7], 0.584 µM. Moreover, the TGI in [8] turned out to be 23.2 µM; in assay [9], 52.2 µM; in assay [10], 70.8 µM.

On to `Oc1c(Cl)cc(Cl)cc1C(c1cc(Cl)cc(Cl)c1O)C(Cl)(Cl)Cl`, for which the GI50 in [1] was 1890 nM; in assay [2], 472 nM; in assay [3] it was 1.61 µM; in [4], 2980 nM; in assay [5] it was 2700 nM; in assay [6] it was 2.13 µM. Besides, the GI50 in [7] was 1680 nM; in [9], 2180 nM; in assay [10], 2.19 µM. The TGI in assay [1] came out at 4.76 µM; in assay [2], 2.06 µM; in assay [3], 4.51 µM; in assay [4], 12.2 µM; in assay [5] it was 14.2 µM; in assay [6], 5.12 µM. The values for the TGI in [7], in assay [9] and in [10] were 5.77 µM, 5.89 µM and 10.9 µM, respectively.

In the case of `COc1ccc2c(c1)C(=O)/C(=C/c1ccc([N+](=O)[O-])o1)O2`, the GI50 is 1300 nM in [1]; 432 nM in assay [2]; 459 nM in assay [4]; 716 nM in assay [5]; 1.39 µM in [6]; 1640 nM in assay [7]. The GI50 in assay [8] was 1020 nM; in [9], 1780 nM; in assay [10], 1.91 µM. Besides, the TGI came out at 2.74 µM in [1]; 1.49 µM in assay [2]; 1.22 µM in [4]; 2.84 µM in assay [5]; 3.02 µM in assay [6]; 4.12 µM in [7]. The TGI came out at 3.58 µM in assay [8], 5.83 µM in assay [9] and 8.27 µM in assay [10].

As to `CC(=[N-])N1CCC[C@@H](Nc2c3ccccc3nc3ccccc23)C1.[Cl][Pt].[NH-]CCC[NH-]`, the GI50 is 431 nM in assay [1]; 2.17 µM in assay [3]; 268 nM in [4]; 357 nM in assay [5]; 4.43 µM in assay [6]; 221 nM in assay [7]. Moreover, the figures for the GI50 in assay [8], in assay [9] and in assay [10] were 577 nM, 32.8 nM and 3.57 µM, respectively. In addition, the TGI is 2.69 µM in [1]; 36 µM in assay [3]; above 100 µM in [4]; above 100 µM in assay [5]; 18.4 µM in assay [6]; 0.656 µM in [7]. The TGI in assay [8] is above 100 µM; in [9] it was 0.2 µM; in assay [10], 44.9 µM.
